{"source": "paper PMC5931107", "about": "“Clinical pharmacodynamic/exposure characterisation of the multikinase inhibitor ilorasertib (ABT-348) in a phase 1 dose-escalation trial” (British Journal of Cancer, 2018)", "key": {"[1]": {"system": "CSF-1R", "set-up": "method as in PMID 22935731", "conditions": "CSF-1R cellular phosphorylation, ligand stimulated; read-out: Cellular PD marker IC50 (95% confidence limits); cited from earlier work"}, "[2]": {"system": "VEGFR2", "set-up": "method as in PMID 22935731", "conditions": "1 mM ATP; read-out: Biochemical IC50 (95% confidence limits); cited from earlier work"}, "[3]": {"system": "Aurora kinase B", "assay": "pHH3 immunohistochemistry in skin punch biopsies", "format": "in vivo, human", "conditions": "8 mg i.v. and 60‒340 mg PO BID"}, "[4]": {"system": "PDGFR-α", "set-up": "method as in PMID 22935731", "conditions": "PDGFR-α cellular phosphorylation, ligand stimulated; read-out: Cellular PD marker IC50 (95% confidence limits); cited from earlier work"}, "[5]": {"assay": "Plasma pharmacokinetics, Arm I (oral QD), phase 1 trial", "format": "in vivo, human", "conditions": "for AUC(0-t): AUCt", "method": "Pharmacokinetics of ilorasertib were evaluated in the dose-escalation cohort on blood samples that were collected on cycle 1 days 1 and 15. Parameters determined: Cmax, time to Cmax (Tmax), terminal phase elimination half-life (t1/2), clearance, apparent oral clearance (CL/F), and area under the plasma concentration-time curve from time 0 to time of last measurable concentration (AUCt) and from time 0 to infinity (AUC∞). For Arm I, blood samples were collected prior to dosing and at 0.5, 1, 2, 3, 4, 6, 8, 10 or 12, and 24 h after dosing on cycle 1 days 1 and 15; of note, for institutions not able to collect the 10- or 12-h post-dose sample, the 24-h sample was replaced with 22-h and 28-h post-dose samples. In Arm II, for the first dose, blood samples were collected pre-dose and at 1, 2, 3, and 4 h post-dose on cycle 1 days 1 and 15; for the second dose, samples were collected pre-dose and at 1, 2, 3, 4, 18, and 24 h after second dose on cycle 1 days 1 and 15. In Arm III, blood samples were collected prior to infusion, at 1 h 55 min (just before end of infusion), and at 0.5, 1, 2, 4, 6, 8, 10, and 24 h after end of infusion on cycle 1 days 1 and 15; here also, for institutions not able to collect the 8-h or 10-h after-end-of-infusion samples, the 24-h sample was replaced with 22-h and 28-h post-dose samples. The liquid chromatography (LC)-mass spectrometry (MS)/MS method was developed and validated in the Bioanalysis Department of AbbVie. Fifty microliter of human plasma (K2EDTA as anticoagulant) was fortified with 300 μL of deuterium-stable labelled internal standard and mixed well. A HybridSPE precipitation plate (50 mg/96 wells, Supelco Analytical, Munich, Germany) was used to directly load and elute (under slight vacuum) the fortified samples into a clean collection plate. Samples were dried before reconstitution with 100 μL of 20/80 (v/v) acetonitrile/water, and injected for LC-MS/MS analysis. A Halo C8 (Wilmington, DE, USA; 2.7 μm, 2.1 × 30 mm) was used on an Agilent 1290 Infinity UPLC pump (Agilent Technologies, Santa Clara, CA) to carry out the separation. An isocratic condition with 25/75/0.1 (v/v/v) acetonitrile/water/98% formic acid was used as the mobile phase. The flow rate was set to be 0.6 mL/min. An MPS 3 C ([…] Ruhr, Germany) autosampler was used to introduce samples onto the UPLC system. An API 4000 mass spectrometer (Applied Biosystems, Foster City, CA) was used in the multiple reactions monitoring mode for the detection and quantitation of analyte. Descriptive statistics were used for demographic variables. The numbers and percentages of patients with treatment-emergent AEs (TEAEs) were tabulated using the Medical Dictionary for Regulatory Activities version 16.0 system organ class and preferred term, and further classified according to CTCAE version 4.0 criteria. The safety data set included all patients who received one or more doses of ilorasertib. The pharmacokinetic data set included all patients who received one or more doses of ilorasertib and had one or more pharmacokinetic samples. Values for pharmacokinetic parameters were determined using non-compartmental methods, with data analysed separately for each arm. A repeated measures analysis was performed for Tmax and dose-normalised Cmax, AUCt, and AUC∞. The model included random effects for patient and fixed effects for dose level, day, and the interaction of dose level and day. To assess effects of exposure on pharmacodynamic biomarkers, Cmax was employed as the directly measured marker of exposure for the rapid changes in DBP and PlGF pre-steady-state, while AUC∞ reflected exposure variability at the time of post-multiple-dose skin biopsy. Descriptive statistics were used to summarise ECOG performance status. The efficacy data set included all patients who received one or more doses of ilorasertib."}, "[6]": {"system": "c-KIT", "set-up": "method as in PMID 22935731", "conditions": "1 mM ATP; read-out: Biochemical IC50 (95% confidence limits); cited from earlier work"}, "[7]": {"system": "PDGFR-β", "set-up": "method as in PMID 22935731", "conditions": "1 mM ATP; read-out: Biochemical IC50 (95% confidence limits); cited from earlier work"}, "[8]": {"system": "Aurora B", "set-up": "method as in PMID 22935731", "conditions": "1 mM ATP; read-out: Biochemical IC50 (95% confidence limits); cited from earlier work"}}, "note": "Marks after values point to notes of the source that are not given here."}
{"compound": "Nc1ncc(-c2cnn(CCO)c2)c2scc(-c3ccc(NC(=O)Nc4cccc(F)c4)cc3)c12", "note": "[ilorasertib, Ilorasertib]", "values": [{"measurement": "IC50", "setting": "[1]", "result": "[…]"}, {"measurement": "IC50", "setting": "[2]", "result": 2, "unit": "nM"}, {"measurement": "pHH3 in epidermis with increasing exposure", "setting": "[3]", "result": "dose-dependent decreases of pHH3"}, {"measurement": "IC50", "setting": "[4]", "result": 16, "unit": "nM"}, {"measurement": "t1/2 (harmonic mean)", "setting": "[5]; Arm I PO QD all doses, day 1, N=21", "result": "12.2 ± 6.9^d h"}, {"measurement": "half-life", "setting": "[5]; human, in vivo, Mean t1/2", "result": "~12", "unit": "h"}, {"measurement": "Tmax", "setting": "[5]; human, in vivo, Time of peak plasma concentration", "result": "~4", "unit": "h"}, {"measurement": "Dose proportionality of exposure (Cmax and AUC)", "setting": "[5]; human, in vivo, iv", "result": "approximately dose proportional"}, {"measurement": "t1/2 (harmonic mean)", "setting": "[5]; human, in vivo, po, 10 mg", "result": "[…]"}, {"measurement": "half-life", "setting": "[5]; human, in vivo, po, 10 mg, t1/2 (harmonic mean)", "result": "11.7 ± 1.4", "unit": "h"}, {"measurement": "AUCt", "setting": "[5]; human, in vivo, po, 20 mg", "result": "1.76 (3.23, 0.29) μg•h/mL"}, {"measurement": "AUC∞", "setting": "[5]; human, in vivo, po, 20 mg", "result": "1.46 (2.41, 0.51) μg•h/mL"}, {"measurement": "Cmax", "setting": "[5]; human, in vivo, po, 20 mg", "result": "0.08 (0.14, 0.02) μg/mL"}, {"measurement": "Tmax", "setting": "[5]; human, in vivo, po, 20 mg", "result": "5.0 (4.0, 6.0) h"}, {"measurement": "AUC(0-t)", "setting": "[5]; human, in vivo, po, 20 mg", "result": 1010, "unit": "ng·h/mL"}, {"measurement": "AUC(0-inf)", "setting": "[5]; human, in vivo, po, 20 mg", "result": 2260, "unit": "ng·h/mL"}, {"measurement": "Cmax", "setting": "[5]; human, in vivo, po, 20 mg, Cmax", "result": "[…]"}, {"measurement": "Tmax", "setting": "[5]; human, in vivo, po, 20 mg, Tmax", "result": 5, "unit": "h"}, {"measurement": "AUCt", "setting": "[5]; human, in vivo, po, 40 mg", "result": 1.15, "unit": "µg·h/mL"}, {"measurement": "AUC∞/dose", "setting": "[5]; human, in vivo, po, 40 mg", "result": 41.0, "unit": "ng·h/mL/mg"}, {"measurement": "CL/F", "setting": "[5]; human, in vivo, po, 40 mg", "result": 24.4, "unit": "L/h"}, {"measurement": "AUC(0-t)", "setting": "[5]; human, in vivo, po, 40 mg", "result": 640, "unit": "ng·h/mL"}, {"measurement": "AUC(0-inf)", "setting": "[5]; human, in vivo, po, 40 mg", "result": 1640, "unit": "ng·h/mL"}, {"measurement": "Tmax", "setting": "[5]; human, in vivo, po, 40 mg, Tmax", "result": 8, "unit": "h"}, {"measurement": "half-life", "setting": "[5]; human, in vivo, po, 40 mg, t1/2 (harmonic mean)", "result": 11.5, "unit": "h"}, {"measurement": "AUCt", "setting": "[5]; human, in vivo, po, 80 mg", "result": "1.59 ± 1.04", "unit": "µg·h/mL"}, {"measurement": "AUC∞", "setting": "[5]; human, in vivo, po, 80 mg", "result": "2.75 ± 2.15", "unit": "µg·h/mL"}, {"measurement": "Cmax", "setting": "[5]; human, in vivo, po, 80 mg", "result": "[…]"}, {"measurement": "t1/2 (harmonic mean)", "setting": "[5]; human, in vivo, po, 80 mg", "result": "16.8 ± 2.8", "unit": "h"}, {"measurement": "AUC(0-t)", "setting": "[5]; human, in vivo, po, 80 mg", "result": "1900 ± 1100", "unit": "ng·h/mL"}, {"measurement": "AUC(0-inf)", "setting": "[5]; human, in vivo, po, 80 mg", "result": "2820 ± 1540", "unit": "ng·h/mL"}, {"measurement": "Cmax", "setting": "[5]; human, in vivo, po, 80 mg, Cmax", "result": "220 ± 100", "unit": "ng/mL"}, {"measurement": "Tmax", "setting": "[5]; human, in vivo, po, 80 mg, Tmax", "result": "4 ± 2", "unit": "h"}, {"measurement": "half-life", "setting": "[5]; human, in vivo, po, 80 mg, t1/2 (harmonic mean)", "result": "16 ± 1.8", "unit": "h"}, {"measurement": "AUCt", "setting": "[5]; human, in vivo, po, 120 mg", "result": "2.25 ± 0.61", "unit": "µg·h/mL"}, {"measurement": "AUC∞", "setting": "[5]; human, in vivo, po, 120 mg", "result": "4.31 ± 2.38^c μg•h/mL"}, {"measurement": "Cmax", "setting": "[5]; human, in vivo, po, 120 mg", "result": "250 ± 140", "unit": "ng/mL"}, {"measurement": "Tmax", "setting": "[5]; human, in vivo, po, 120 mg", "result": "4.1 ± 2.2", "unit": "h"}, {"measurement": "AUC(0-t)", "setting": "[5]; human, in vivo, po, 120 mg", "result": "3600 ± 2500", "unit": "ng·h/mL"}, {"measurement": "AUC(0-inf)", "setting": "[5]; human, in vivo, po, 120 mg", "result": "5400 ± 2620", "unit": "ng·h/mL"}, {"measurement": "Cmax", "setting": "[5]; human, in vivo, po, 120 mg, Cmax", "result": "490 ± 330", "unit": "ng/mL"}, {"measurement": "Tmax", "setting": "[5]; human, in vivo, po, 120 mg, Tmax", "result": "3.8 ± 2.2", "unit": "h"}, {"measurement": "AUC∞", "setting": "[5]; human, in vivo, po, 140 mg", "result": "4.13 (4.96, 3.31)^a μg•h/mL"}, {"measurement": "Cmax", "setting": "[5]; human, in vivo, po, 140 mg", "result": "330 ± 190", "unit": "ng/mL"}, {"measurement": "Tmax", "setting": "[5]; human, in vivo, po, 140 mg", "result": "10.1 ± 12.3", "unit": "h"}, {"measurement": "t1/2 (harmonic mean)", "setting": "[5]; human, in vivo, po, 140 mg", "result": "15.8 ± 23.6", "unit": "h"}, {"measurement": "AUC(0-inf)", "setting": "[5]; human, in vivo, po, 140 mg", "result": "5400 ± 1800", "unit": "ng·h/mL"}, {"measurement": "Cmax", "setting": "[5]; human, in vivo, po, 140 mg, Cmax", "result": "240 ± 130", "unit": "ng/mL"}, {"measurement": "half-life", "setting": "[5]; human, in vivo, po, 140 mg, t1/2 (harmonic mean)", "result": 10.1, "unit": "h"}, {"measurement": "Tmax", "setting": "[5]; human, in vivo, po, 180 mg", "result": 2.0, "unit": "h"}, {"measurement": "t1/2 (harmonic mean)", "setting": "[5]; human, in vivo, po, 180 mg", "result": 11.6, "unit": "h"}, {"measurement": "Tmax", "setting": "[5]; human, in vivo, po, 180 mg, Tmax", "result": "4 ± 2", "unit": "h"}, {"measurement": "half-life", "setting": "[5]; human, in vivo, po, 180 mg, t1/2 (harmonic mean)", "result": "9.5 ± 2.7", "unit": "h"}, {"measurement": "Tmax", "setting": "[5]; human, in vivo, po, Tmax", "result": "4.2 ± 1.8", "unit": "h"}, {"measurement": "half-life", "setting": "[5]; human, in vivo, po, t1/2 (harmonic mean)", "result": "14 ± 4", "unit": "h"}, {"measurement": "IC50", "setting": "[6]", "result": 20, "unit": "nM"}, {"measurement": "IC50", "setting": "[7]", "result": "[…]"}, {"measurement": "IC50", "setting": "[8]", "result": "[…]"}]}
